Molecules are shown by their SMILES.

As a reminder, the IC50 is the midpoint of a concentration-inhibition curve.

For the experiment, the target named is recombinant human mGluR2 (Homo sapiens (Human), UniProt Q14416). In words: FLIPR Ca2+ mobilization antagonist assay in CHO dhfr- cells expressing human mGluR2 and Gα16. Format: cell-based. As to conditions: antagonist response after addition of 2,500 nM glutamate, Fluo-4 AM, FLIPR384. The method in brief: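 CHO dhfr- cells stably co-expressing human mGluR2 and Gα16, Fluo-4 AM loaded, preincubated with compound, then challenged with 2,500 nM glutamate; Ca2+ response read by FLIPR. Maximum calcium response vs concentration fitted to four-parameter logistic for IC50.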
recombinant human mGluR2, sequence (Q14416 19-872): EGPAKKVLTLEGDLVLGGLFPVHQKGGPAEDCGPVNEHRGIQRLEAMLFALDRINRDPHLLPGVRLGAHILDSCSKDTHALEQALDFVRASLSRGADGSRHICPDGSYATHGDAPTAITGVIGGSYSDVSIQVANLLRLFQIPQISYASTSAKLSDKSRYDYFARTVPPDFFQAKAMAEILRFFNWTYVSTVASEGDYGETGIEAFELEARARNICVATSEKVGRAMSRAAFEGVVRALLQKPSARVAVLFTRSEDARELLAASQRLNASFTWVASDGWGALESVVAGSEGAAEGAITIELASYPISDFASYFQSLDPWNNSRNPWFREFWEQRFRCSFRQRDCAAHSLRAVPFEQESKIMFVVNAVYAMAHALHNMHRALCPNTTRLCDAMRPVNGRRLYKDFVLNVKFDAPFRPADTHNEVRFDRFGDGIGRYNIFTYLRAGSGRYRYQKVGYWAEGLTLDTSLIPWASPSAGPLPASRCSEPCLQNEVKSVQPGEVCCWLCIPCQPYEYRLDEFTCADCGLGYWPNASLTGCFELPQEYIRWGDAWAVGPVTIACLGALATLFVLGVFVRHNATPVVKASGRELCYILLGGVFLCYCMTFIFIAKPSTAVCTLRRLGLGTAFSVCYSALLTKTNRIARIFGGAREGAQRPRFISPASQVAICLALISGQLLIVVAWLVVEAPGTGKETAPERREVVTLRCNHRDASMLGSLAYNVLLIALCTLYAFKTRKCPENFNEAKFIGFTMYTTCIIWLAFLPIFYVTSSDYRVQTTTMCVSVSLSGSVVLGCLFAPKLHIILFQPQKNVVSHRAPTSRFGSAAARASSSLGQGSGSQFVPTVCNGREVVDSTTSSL
(Calcium flux is commonly read through the fluorescence of an indicator in the cells.)
Turning to `CC(C)c1noc(CN2CCc3c(-c4ccc(Cl)cc4F)cc(C(N)=O)nc3C2)n1` [Example 9-6, 4-(4-chloro-2-fluorophenyl)-7-{[3-(1-methylethyl)-1,2,4-oxadiazol-5-yl]methyl}-5,6,7,8-tetrahydro-1,7-naphthyridine-2-carboxamide], the IC50 was found to be 8 nM.

In the case of `CC1(C)CC(F)(CN2CCc3c(-c4ccc(F)cc4F)cc(C(N)=O)nc3C2)CO1` (single isomer, unassigned) [Example 14-1B], the 50% inhibitory concentration (IC50) was found to be 17.8 nM.

With `COc1ncc(CN2CCc3c(-c4ccc(Cl)cc4F)cc(C(N)=O)nc3C2)cn1` [Example 10-2, 4-(4-chloro-2-fluorophenyl)-7-[(2-methoxypyrimidin-5-yl)methyl]-5,6,7,8-tetrahydro-1,7-naphthyridine-2-carboxamide], the IC50 amounted to 7.4 nM. Turning to `CC1c2nc(C(N)=O)cc(-c3ccc(F)cc3F)c2CCN1Cc1ccnn1C(C)C` (single isomer, unassigned) [Example 1-15B, (R) or (S)-4-(2,4-difluorophenyl)-8-methyl-7-{[1-(1-methylethyl)-1H-pyrazol-5-yl]methyl}-5,6,7,8-tetrahydro-1,7-naphthyridine-2-carboxamide], the IC50 was 5.3 nM. The value for `CC1CCCN(c2cc(C(N)=O)nc3c2CCN(Cc2ccnc(C(F)(F)F)c2)C3)C1` (single isomer, unassigned) [Example 5-5A, (S) or (R)-4-(3-methylpiperidin-1-yl)-7-((2-(trifluoromethyl)pyridin-4-yl)methyl)-5,6,7,8-tetrahydro-1,7-naphthyridine-2-carboxamide] was 18.4 nM; that for `Cc1csc(-c2cc(C(N)=O)nc3c2CCN(Cc2ccnc(C(F)(F)F)c2)C3)n1` [Example 6-2, 4-(4-methyl-1,3-thiazol-2-yl)-7-{[2-(trifluoromethyl)pyridin-4-yl]methyl}-5,6,7,8-tetrahydro-1,7-naphthyridine-2-carboxamide] was 1150 nM. With `COc1cc(F)ccc1-c1cc(C(N)=O)nc2c1CCN(Cc1ccnc(C3CC3)c1)C2` [Example 2-10, 7-[(2-cyclopropylpyridin-4-yl)methyl]-4-(4-fluoro-2-methoxyphenyl)-5,6,7,8-tetrahydro-1,7-naphthyridine-2-carboxamide], the half-inhibitory concentration (IC50) stood at 40.9 nM. On to `Cc1cnn(C)c1CN1CCc2c(-c3ccc(F)cc3F)cc(C(N)=O)nc2C1` [Example 1-10, 4-(2,4-difluorophenyl)-7-[(1,4-dimethyl-1H-pyrazol-5-yl)methyl]-5,6,7,8-tetrahydro-1,7-naphthyridine-2-carboxamide], for which the IC50 came to 21.8 nM.

With `NC(=O)c1cc(-c2ccc(F)cc2)c2c(n1)CN(C(c1cccnc1)C(F)(F)F)CC2` (racemic) [Example 3-1B, (S) and (R)-4-(4-fluorophenyl)-7-(2,2,2-trifluoro-1-(pyridin-3-yl)ethyl)-5,6,7,8-tetrahydro-1,7-naphthyridine-2-carboxamide], the half-inhibitory concentration (IC50) came to 22.3 nM.

On to `NC(=O)c1cc(-c2cc(C3CC3)ns2)c2c(n1)CN(Cc1ccnc(C3CC3)c1)CC2` [Example 2-24, 4-(3-cyclopropylisothiazol-5-yl)-7-[(2-cyclopropylpyridin-4-yl)methyl]-5,6,7,8-tetrahydro-1,7-naphthyridine-2-carboxamide], for which the IC50 worked out at 18.2 nM.

On to `CC1(C)CC(F)(CN2CCc3c(-c4ccc(F)cc4F)cc(C(N)=O)nc3C2)CO1` (single isomer, unassigned) [Example 14-1A], for which the IC50 is 17.4 nM. The value for `NC(=O)c1cc(-c2ccc(F)cc2F)c2c(n1)CN(Cc1cc(C(F)(F)F)ncn1)CC2` [Example 2-23, 4-(2,4-difluorophenyl)-7-{[6-(trifluoromethyl)pyrimidin-4-yl]methyl}-5,6,7,8-tetrahydro-1,7-naphthyridine-2-carboxamide] was 5.7 nM; that for `NC(=O)c1cc(-c2c(F)cc(F)cc2F)c2c(n1)CN(Cc1ccnc(C(F)(F)F)n1)CC2` [Example 11-6, 7-{[2-(trifluoromethyl)pyrimidin-4-yl]methyl}-4-(2,4,6-trifluorophenyl)-5,6,7,8-tetrahydro-1,7-naphthyridine-2-carboxamide] was 13.2 nM. In the case of `CC1c2nc(C(N)=O)cc(-c3ccc(F)cc3F)c2CCN1CC1CCOC(C)(C)C1` (single isomer, unassigned) [Example 1-18], the 50% inhibitory concentration (IC50) was 12.3 nM. On to `CC(c1ccnc(C(F)(F)F)c1)N1CCc2c(-c3cnn(C(F)F)c3)cc(C(N)=O)nc2C1` (single isomer, unassigned) [Example 7-3A, (S) or (R)-4-[1-(difluoromethyl)-1H-pyrazol-4-yl]-7-{(1R)-1-[2-(trifluoromethyl)pyridin-4-yl]ethyl}-5,6,7,8-tetrahydro-1,7-naphthyridine-2-carboxamide], for which the concentration for half-maximal inhibition (IC50) was 29.3 nM. In the case of `NC(=O)c1cc(-c2cnc(C(F)F)s2)c2c(n1)CN(Cc1ccnc(OC(F)F)c1)CC2` [Example 2-15, 7-{[2-(difluoromethoxy)pyridin-4-yl]methyl}-4-[2-(difluoromethyl)-1,3-thiazol-5-yl]-5,6,7,8-tetrahydro-1,7-naphthyridine-2-carboxamide] it was 45.2 nM; in that of `CC1(C)CC(CN2CCc3c(-c4ccc(Cl)cc4F)cc(C(N)=O)nc3C2)CCO1` (single isomer, unassigned) [Example 1-5A, (R) or (S)-4-(4-chloro-2-fluorophenyl)-7-((2,2-dimethyltetrahydro-2H-pyran-4-yl)methyl)-5,6,7,8-tetrahydro-1,7-naphthyridine-2-carboxamide], 5.6 nM; in that of `NC(=O)c1cc(-n2ccc(C(F)(F)F)n2)c2c(n1)CN(Cc1ccnc(C(F)(F)F)c1)CC2` [Example 2-19, 4-[3-(trifluoromethyl)-1H-pyrazol-1-yl]-7-{[2-(trifluoromethyl)pyridin-4-yl]methyl}-5,6,7,8-tetrahydro-1,7-naphthyridine-2-carboxamide], 61.6 nM. Regarding `CC1(C)CCC(CN2CCc3c(-c4ccc(Cl)cc4F)cc(C(N)=O)nc3C2)CO1` (single isomer, unassigned) [Example 1-21, (S) or (R)-4-(4-chloro-2-fluorophenyl)-7-[(6,6-dimethyltetrahydro-2H-pyran-3-yl)methyl]-5,6,7,8-tetrahydro-1,7-naphthyridine-2-carboxamide], the IC50 turned out to be 9.3 nM.

`NC(=O)c1cc(N2CCC3(CC2)CC3)c2c(n1)CN(Cc1cc(C(F)(F)F)ncn1)CC2` [Example 12-5, 4-(6-azaspiro[2.5]oct-6-yl)-7-{[6-(trifluoromethyl)pyrimidin-4-yl]methyl}-5,6,7,8-tetrahydro-1,7-naphthyridine-2-carboxamide]: the half-inhibitory concentration (IC50) stood at 20.4 nM.

On to `NC(=O)c1cc(-c2c(F)cc(Cl)cc2F)c2c(n1)CN(Cc1ccnn1C(F)F)CC2` [Example 2-20, 4-(4-chloro-2,6-difluorophenyl)-7-{[1-(difluoromethyl)-1H-pyrazol-5-yl]methyl}-5,6,7,8-tetrahydro-1,7-naphthyridine-2-carboxamide], for which the IC50 turned out to be 11 nM. Take `N#Cc1cnn(-c2cc(C(N)=O)nc3c2CCN(Cc2ccnc(C(F)(F)F)c2)C3)c1` [Example 2-25, 4-(4-cyano-1H-pyrazol-1-yl)-7-{[2-(trifluoromethyl)pyridin-4-yl]methyl}-5,6,7,8-tetrahydro-1,7-naphthyridine-2-carboxamide]: the 50% inhibitory concentration (IC50) is 40.9 nM.

Regarding `Cc1nonc1CN1CCc2c(-c3ccc(F)cc3F)cc(C(N)=O)nc2C1` [Example 2-7, 4-(2,4-difluorophenyl)-7-[(4-methyl-1,2,5-oxadiazol-3-yl)methyl]-5,6,7,8-tetrahydro-1,7-naphthyridine-2-carboxamide], the 50% inhibitory concentration (IC50) was determined as 7.6 nM. For the compound `NC(=O)c1cc(-c2ccc(F)cc2)c2c(n1)CN(CCc1cccnc1N)CC2` [Example 1-4, 7-(2-(2-aminopyridin-3-yl)ethyl)-4-(4-fluorophenyl)-5,6,7,8-tetrahydro-1,7-naphthyridine-2-carboxamide], the half-inhibitory concentration (IC50) was found to be 83.5 nM. For `CS(=O)(=O)c1cccc(CN2CCc3c(-c4ccccc4F)cc(C(N)=O)nc3C2)c1` [Example 2-13, 4-(2-fluorophenyl)-7-[3-(methylsulfonyl)benzyl]-5,6,7,8-tetrahydro-1,7-naphthyridine-2-carboxamide], the concentration for half-maximal inhibition (IC50) was determined as 47.8 nM. Regarding `Cc1cn(-c2cc(C(N)=O)nc3c2CCN(Cc2ccnc(C(F)(F)F)c2)C3)nc1C` [Example 5-7, 4-(3,4-dimethyl-1H-pyrazol-1-yl)-7-{[2-(trifluoromethyl)pyridin-4-yl]methyl}-5,6,7,8-tetrahydro-1,7-naphthyridine-2-carboxamide], the concentration for half-maximal inhibition (IC50) came to 42.7 nM.

As for `Cc1ncc(-c2cc(C(N)=O)nc3c2CCN(Cc2ccnc(OC(F)F)c2)C3)s1` [Example 6-3, 7-{[2-(difluoromethoxy)pyridin-4-yl]methyl}-4-(2-methyl-1,3-thiazol-5-yl)-5,6,7,8-tetrahydro-1,7-naphthyridine-2-carboxamide], the IC50 stood at 18.6 nM.

With `NC(=O)c1cc(N2CCCC(F)C2)c2c(n1)CN(Cc1ccnc(C(F)(F)F)c1)CC2` (single isomer, unassigned) [Example 5-6A, (S) or (R)-4-(3-fluoropiperidin-1-yl)-7-((2-(trifluoromethyl)pyridin-4-yl)methyl)-5,6,7,8-tetrahydro-1,7-naphthyridine-2-carboxamide], the half-maximal inhibitory concentration (IC50) amounted to 21.4 nM. With `COc1cnn(-c2cc(C(N)=O)nc3c2CCN(Cc2ccnc(C(F)(F)F)c2)C3)c1` [Example 5-8, 4-(4-methoxy-1H-pyrazol-1-yl)-7-{[2-(trifluoromethyl)pyridin-4-yl]methyl}-5,6,7,8-tetrahydro-1,7-naphthyridine-2-carboxamide], the IC50 was 88.7 nM. In the case of `CC(c1cnnn1C)N1CCc2c(-c3ccc(F)cc3F)cc(C(N)=O)nc2C1` (single isomer, unassigned) [Example 7-2, (R) or (S)-4-(2,4-difluorophenyl)-7-[(1R)-1-(1-methyl-1H-1,2,3-triazol-5-yl)ethyl]-5,6,7,8-tetrahydro-1,7-naphthyridine-2-carboxamide] it was 45.9 nM.

(Values after patent US10072003B2, “Tetrahydronaphthyridine derivatives as mGluR2-negative allosteric modulators, compositions, and their use” (Merck Sharp & Dohme Corp., priority 2014, dated 2018).)
